Experimental findings from PubChem BioAssay AID977614 (Broad Institute, 2014) are described below.

The source made the active and inactive calls.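 Rule for the calls: active = parasite count per well reduced by over 3 SD from the mean, with host cell number above 80% of untreated; inactive = the rest.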 A value given as a limit tells only on which side of the number the result lay.

The assay deals with L. donovani amastigotes in THP-1 macrophages, DAPI imaging, 72 h. In words: antileishmanial activity in infected macrophages – imaging, THP-1 host macrophages, single concentration (AID 977614).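 Note: signal is the parasite per host cell ratio from DAPI stained kinetoplasts and nuclei.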
For `Cc1noc(C)c1NC(=O)N(C)C[C@H]1OCc2cnnn2CCCC(=O)N([C@H](C)CO)C[C@@H]1C`, the AC50 is > 10 µM (inactive).
Next, `C[C@@H]1CN([C@@H](C)CO)C(=O)CCCn2nncc2CO[C@H]1CN(C)Cc1cccc(C(F)(F)F)c1`: > 10 µM (inactive).
In the case of `O=C(C1CCC1)N1C[C@H]2[C@@H](c3ccccc31)[C@@H](CO)N2C(=O)Nc1cccc(F)c1`, the AC50 was > 10 µM (inactive).
Next, `OC[C@H]1[C@H]2c3ccccc3NC[C@H]2N1CC1CCOCC1`: > 10 µM (inactive).
Next, `O=C(Nc1ccc(F)cc1)N1C[C@H]2[C@@H](c3ccccc31)[C@@H](CO)N2C(=O)c1ccncc1`: > 10 µM (inactive); `CN(Cc1ccccc1F)C[C@H]1[C@@H](c2ccccc2)[C@@H](CO)N1S(C)(=O)=O`: > 10 µM (inactive).
Next, `CN(C[C@H]1[C@@H](c2ccccc2)[C@@H](CO)N1C(=O)C1CCC1)C(=O)c1ccncc1`: > 10 µM (inactive).
As to `C[C@@H]1CN([C@@H](C)CO)C(=O)CCCn2nncc2CO[C@@H]1CN(C)CC1CCCCC1`, the AC50 is > 10 µM (inactive).
Under `O=C(Nc1ccccc1Cl)N1C[C@H]2[C@@H](c3ccccc31)[C@H](CO)N2C(=O)c1cccnc1` stands > 10 µM (inactive); under `C[C@H]1CN([C@@H](C)CO)C(=O)CCCn2cc(nn2)CO[C@@H]1CN(C)C(=O)NC1CCCCC1`, > 10 µM (inactive); under `C[C@H]1CN([C@@H](C)CO)C(=O)CCCn2nncc2CO[C@@H]1CN(C)Cc1ccc(C(=O)Nc2ccccc2N)cc1`, > 10 µM (inactive).
Consider `C[C@@H]1CN([C@@H](C)CO)C(=O)CCCn2nncc2CO[C@@H]1CN(C)Cc1ccc2c(c1)OCCN2C`, for which the AC50 is > 10 µM (inactive).
As for `CC(C)N(C[C@H]1[C@H](c2ccccc2)[C@H](CO)N1S(C)(=O)=O)C(=O)CN(C)C`, the AC50 was > 10 µM (inactive).
In the case of `CCN(C[C@@H]1[C@@H](c2ccc(-c3cccnc3)cc2)[C@H](CO)N1C(C)=O)C(C)=O`, the AC50 is > 10 µM (inactive).
Consider `O=C(NC[C@@H]1N[C@@H](CO)[C@H]1c1ccccc1)c1ccccc1F`, for which the AC50 was > 10 µM (inactive).
In the case of `CCC(=O)N1[C@H](CN(CC)C(=O)c2cccc(F)c2)[C@H](c2ccccc2)[C@@H]1CO`, the AC50 was > 10 µM (inactive).
Next, `CCC(=O)N1[C@H](CN(CC)C(=O)c2cccc(F)c2)[C@@H](c2ccccc2)[C@@H]1CO`: > 10 µM (inactive); `CCN(C[C@H]1[C@H](c2ccccc2)[C@H](CO)N1C(C)=O)C(=O)NC1CCCC1`: > 10 µM (inactive).
For the compound `CCN(C[C@@H]1[C@@H](c2ccccc2)[C@@H](CO)N1CC1CC1)C(=O)c1ccccn1`, the AC50 was > 10 µM (inactive).
Next, `COc1ccc(NC(=O)N(C)C[C@H]2OCc3cnnn3CCCC(=O)N([C@@H](C)CO)C[C@H]2C)c(OC)c1`: > 10 µM (inactive); `CC(=O)N1[C@H](CNC(=O)CN(C)C)[C@H](c2ccc(C3=CCCCC3)cc2)[C@@H]1CO`: > 10 µM (inactive); `CC(=O)N1[C@H](CO)[C@H](c2ccccc2)[C@H]1CN(C)S(=O)(=O)c1ccccc1`: > 10 µM (inactive).
Turning to `C[C@@H]1CN([C@@H](C)CO)C(=O)CCCn2nncc2CO[C@H]1CN(C)C(=O)c1ccc2ccn(C)c2c1`, the AC50 is > 10 µM (inactive).
Regarding `O=C(c1ccccc1)N1C[C@@H]2[C@H](c3ccccc31)[C@H](CO)N2Cc1ccccn1`, the AC50 was > 10 µM (inactive).
Under `O=C(NC[C@@H]1[C@H](c2ccccc2)[C@@H](CO)N1C(=O)C1CCC1)NC1CCCC1` stands > 10 µM (inactive); under `CN(C[C@@H]1N[C@H](CO)[C@H]1c1ccc(C2=CCCC2)cc1)C(=O)c1cccc(F)c1`, > 10 µM (inactive).
Next, `COCC(=O)N(C)C[C@H]1[C@H](c2ccccc2)[C@H](CO)N1C(=O)Cc1ccncc1`: > 10 µM (inactive); `C[C@@H]1CN([C@H](C)CO)C(=O)CCCn2nncc2CO[C@@H]1CN(C)Cc1ccc2cccnc2c1`: > 10 µM (inactive).

By AC50 is commonly meant the concentration at which the activity in the assay is half-maximal.
